≈ marks a conversion by molar mass, not a printed value. Like-named read-outs stand apart in the source and are kept apart here.
Key:
E. coli ATCC25922 strain = assay: MIC 50, broth micro-dilution, wild-type Escherichia coli; assay type: cell-based; conditions: Escherichia coli, MH2, 18 h
Description: 3.1 Against E. coli Strains
(§1) Tested reference compounds. Amikacin sulfate (Cat. No. 01693, Chem-Impex), Gentamicin sulfate (Cat. No. G4918, Sigma Aldrich).
Microbial strains. E. coli ATCC 25922, E. coli ATCC 25922/pET-9b(+), E. coli ATCC 25922/pAT21-1, E. coli ATCC 25922/pBluescript::AAC(6′)-Ie/APH(2″)-Ia, E. coli ATCC 25922/pBlue_lpp_aacC3_rrnC, E. coli ATCC 25922/pSET152.
Culture media and equipment. BBL™ Mueller Hinton Broth 2 (Lot. BCBW1143, Cat. No. 70192, Sigma); Kanamycin A (Cat. No. A1493, AppliChem); 96-well deep well plate, 1 mL (Cat. No. 0030506.200, Eppendorf); Plate lids (Cat. No. 0030131.525, Eppendorf); 96-well plate, F-bottom (Cat. No. 781602, Brand; Incubator, Infors Multitron Pro); Laminar flow (Heraeus KS12); UV/VIS meter (Eppendorf BioPhotometer Plus); Platereader (Tecan Sunrise).
(§2) Compound preparation. Compounds were prepared in MH2 media at a concentration of 5 mM and stored at 4° C. For testing, solutions of 128 μM were prepared in MH2. Out of these working solutions, 400 μL was transferred to wells in the first column of 96-well deep well plates. Each compound was transferred in triplicate. Plates were previously filled with 200 μL of MH2 media in all wells except for the wells in the first column. After compound and antibiotic addition, the compounds were serial two-fold diluted by transferring 200 μL from the first to the second column, then from the second to the third column and so on. Finally, 200 μL was removed from the last column.
Inoculum preparation. Microorganisms used were all revived from 20% glycerol (40% v/v glycerol in water was diluted with MH2) storage at −80° C. by inoculating them in 5 mL MH2. inoculums of E. coli containing a plasmid were selected for by adding 50 μg/mL KanaA. The Inoculums were grown to an optical density (measured by UV/Vis spectroscopy) of 0.6-0.8 at 600 nm. Out of these suspensions, actual inoculums were prepared by diluting them to an optical density (OD) of 0.1 in MH2 media. From these inoculums, 200 μL was transferred to each well, resulting in a final compound concentration range of 64 μM-31.3 nM. All plates were incubated at 900 rpm and 70% rH for 18 h at 37° C.
(§3) MIC determination. After 18 h of growth, 200 μL was transferred to a 96-well F-bottom plate. The optical density was determined by a plate reader at 600 nm, with 10 s shaking before reading. Triplicate measurements were averaged, and a growth curve was plotted in Microsoft Excel. The first column in which the growth reached half the value of maximum growth was determined as the MIC50 value for that particular compound.
(§4) MIC50. The MIC50 of a compound was assigned at which the bacterial growth reached half the value of maximum growth.

[1] = test system: Enterobacter cloacae 3MRGN (clinical bronchial aspirate isolate); assay: MIC 50, broth micro-dilution, clinical isolate; assay type: cell-based; conditions: Enterobacter cloacae, E. Cloacae clinical isolate; read-out: MIC 50
Description: (§5) 3.2 Against Selected Bacteria of the ESKAPE Panel and Enterococcus faecalis (DSM Strains)
as §1
(§6) Microbial strains. Enterococcus faecalis DSM 2570, Klebsiella pneumoniae DSM 26371, Acinetobacter baumannii DSM 105126, Enterobacter cloacae 3MRGN (clinical bronchial aspirate isolate).
(§7) Culture media and equipment. BBL™ Mueller Hinton Broth 2 (Lot. BCBW1143, Cat. No. 70192, Sigma); Trypcase Soy Blood-agar plates (Cat. No. 43001, Biomérieux); Cryoinstant (contains 15% glycerol; Cat. No. 822070ZA, VWR International); GasPak™ EZ Standard Incubation Container (Cat. No. 260671, Becton Dickinson); GasPak™ EZ Campy Container System Sachets (Cat. No. 260680, Becton Dickinson); 96-well deep well plate, 1 mL (Cat. No. 0030506.200, Eppendorf); Plate lid (Cat. No. 0030131.525, Eppendorf); 96-well plate, F-bottom (Cat. No. 260860, Nunc); Incubator (Sartorius Certomat BS-1); Laminar flow (Heraeus HS12); UV/VIS meter (Perkin Elmer Lambda Bio+); Platereader (Tecan Infinite M200 Pro).
as §2, with “MH2, for tests against E. faecalis a solution of 512 μM was prepared.” for “MH2.”
(§8) Inoculum preparation. Microorganisms used were all revived from 15% glycerol storage in Croinstant tubes at −28° C. by plating them on blood agar plates. A. baumanni, and E. cloacae were grown aerobically at 37° C., E. faecalis was grown microaerophilically at 37° C., and K. pneumoniae was grown aerobically at 37° C. Plates were stored at 4° C. for up to two weeks, after which new plates were prepared from −28° C. A single colony was inoculated in MH2 media and grown at 37° C. and 200 rpm to an optical density (measured by UV/Vis spectroscopy) of 0.6-0.8 at 600 nm. Out of these suspensions, actual inoculums were prepared by diluting them to an optical density of 0.1 in MH2 media. From these inoculums, 200 μL was transferred to each well, resulting in a final compound concentration range of 64 μM-31.3 nM for, K. pneumoniae, A. baumanni, and E. cloacae, and 256 μM-125 nM for E. faecalis. Plates inoculated with E. faecalis were placed inside a GasPak™ Container System with GasPak™ Campy Container System sachets. All plates were incubated at 200 rpm for 18 h under the microorganism culturing conditions mentioned above.
as §3, with “in” for “in Microsoft”
as §4

A. baumannii DSM 105126 = assay: MIC 50, broth micro-dilution, DSM strains; assay type: cell-based, Acinetobacter baumannii; conditions: Acinetobacter baumannii, DSM105126, read-out: MIC 50
Description: as §5, §1, §6, §7
as §2, with “MH2, for tests against E. faecalis a solution of 512 μM was prepared.” for “MH2.”
as §8
as §3, with “in” for “in Microsoft”
as §4

| SMILES | MIC50 (E. coli ATCC25922 strain; ATCC25922, 18 h) [µM] | MIC50 [1] [µM] | MIC50 (A. baumannii DSM 105126) [µM] | MIC50 (E. coli ATCC25922 strain; read-out: MIC 50) [µM] |
| --- | --- | --- | --- | --- |
| N=C(NC[C@H]1CNCCO1)NC1[C@@H](O)C(OC2[C@@H](F)[C@H](O[C@H]3OC(CN)[C@@H](O)CC3N)C(N)C[C@H]2NC(=O)[C@@H](O)CCN)O[C@H](CO)[C@H]1O (stereo partly drawn) [ABX5043, Tobra-AHB-F-Gua (R) morpholin-2-yl methyl] | 0.25 (≈ 0.178 µg/mL) | 0.25 (≈ 0.178 µg/mL) | 0.0625 to 0.125 (≈ 0.0445 to 0.089 µg/mL) |  |
| N=C(N)NC1[C@@H](O)C(OC2[C@@H](F)[C@H](O[C@H]3OC(CNCCO)[C@@H](O)CC3N)C(N)C[C@H]2NC(=O)[C@@H](O)CCN)O[C@H](CO)[C@H]1O (stereo partly drawn) [ABX5045, 6N-2-hydroxy-ethyl-Tobra-AHB-F-Gua] | 1 (≈ 0.657 µg/mL) | 1 (≈ 0.657 µg/mL) | 0.5 (≈ 0.328 µg/mL) |  |
| N=C(NCC1CCCO1)NC1[C@@H](O)C(OC2[C@@H](F)[C@H](O[C@H]3OC(CN)[C@@H](O)CC3N)C(N)C[C@H]2NC(=O)[C@@H](O)CCN)O[C@H](CO)[C@H]1O (stereo partly drawn) [ABX5046, Tobra-AHB-F-Gua tetrahydrofuran-2-yl methyl] | 0.5 (≈ 0.348 µg/mL) | 1 (≈ 0.697 µg/mL) | 0.25 (≈ 0.174 µg/mL) |  |
| C[C@@H](N)CCNC(=N)NC1[C@@H](O)C(OC2[C@@H](F)[C@H](O[C@H]3OC(CN)[C@@H](O)CC3N)C(N)C[C@H]2NC(=O)[C@@H](O)CCN)O[C@H](CO)[C@H]1O (stereo partly drawn) [ABX5047, Tobra-AHB-F-Gua (R) 3-amino-butyl] | 0.25 (≈ 0.171 µg/mL) | 0.25 to 0.5 (≈ 0.171 to 0.342 µg/mL) | 0.125 (≈ 0.0855 µg/mL) |  |
| N=C(NCc1ccncc1)NC1[C@@H](O)C(OC2[C@@H](F)[C@H](O[C@H]3OC(CN)[C@@H](O)CC3N)C(N)C[C@H]2NC(=O)[C@@H](O)CCN)O[C@H](CO)[C@H]1O (stereo partly drawn) [ABX5048, Tobra-AHB-F-Gua pyridin-4-yl methyl] | 1 (≈ 0.704 µg/mL) | 1 (≈ 0.704 µg/mL) | 0.5 (≈ 0.352 µg/mL) |  |
| N=C(NCc1cnc[nH]1)NC1[C@@H](O)C(OC2[C@@H](F)[C@H](O[C@H]3OC(CN)[C@@H](O)CC3N)C(N)C[C@H]2NC(=O)[C@@H](O)CCN)O[C@H](CO)[C@H]1O (stereo partly drawn) [ABX5050, Tobra-AHB-F-Gua imidazol-5-yl methyl] | 1 (≈ 0.693 µg/mL) | 1 to 2 (≈ 0.693 to 1.39 µg/mL) | 0.5 (≈ 0.346 µg/mL) |  |
| N=C(NCC1CCOC1)NC1[C@@H](O)C(OC2[C@@H](F)[C@H](O[C@H]3OC(CN)[C@@H](O)CC3N)C(N)C[C@H]2NC(=O)[C@@H](O)CCN)O[C@H](CO)[C@H]1O (stereo partly drawn) [ABX5051, Tobra-AHB-F-Gua tetrahydrofuran-3-yl methyl] | 0.5 (≈ 0.348 µg/mL) | 1 (≈ 0.697 µg/mL) | 0.5 (≈ 0.348 µg/mL) |  |
| NCC[C@H](O)C(=O)N[C@@H]1C[C@H](N)[C@@H](O[C@H]2O[C@H](CN)[C@@H](O)[C@H](O)[C@H]2O)[C@H](O)[C@H]1O[C@H]1O[C@H](CO)[C@@H](O)[C@H](N)[C@H]1O [Amikacin, amikacin, reference compound] |  | 2 (≈ 1.17 µg/mL) | 0.5 (≈ 0.293 µg/mL) | 2 (≈ 1.17 µg/mL) |
